Here are results for two molecules from patent publication US20240091279A1, “COMBINATION THERAPY FOR INFLAMMATORY DISEASES” (University of lowa Research Foundation, priority 2022, published 2024).

Where two headings read alike, the source gives them in different places.

The test system of test [1] is mouse model of MS. Briefly: Mouse model of MS, Example I. Format: in vivo, mice. Particulars: versus diet lacking phytoestrogen.
For test [2], the system named is experimental autoimmune encephalomyelitis (EAE). As to conditions: earlier published studies, cited from earlier work.
The conditions of test [3]: versus the original isoflavones; cited from earlier work.

As to `Oc1ccc([C@H]2COc3cc(O)ccc3C2)cc1` [S-equol], in test [1], the disease severity entry was “mimic some of the disease protective function”. Also, the EAE disease result is “sufficient to ameliorate EAE” in test [2] and “protect” in test [2] (listed as equol). Further, the estrogenic activity entry in test [3] is given as “significantly higher estrogenic activity”.
In the case of Parabacteroides distasonis, the EAE disease entry in test [2] is recorded as “sufficient to ameliorate EAE”.
